Laboratory results taken from patent publication US20250228239A1, “MOLECULES HAVING PESTICIDAL UTILITY, AND INTERMEDIATES, COMPOSITIONS, AND PROCESSES, RELATED THERETO” (priority 2024, published 2025).

How the values were obtained:
Format in all cases: in vivo
[1] = system: Beet Armyworm (Spodoptera exigua, LAPHEG); assay: Bioassays on Beet Armyworm (BAW), 128-well diet tray assay; settings: Spodoptera exigua; Table ABC: Biological Results; species BAW; read-out: BAW
Summary of the method: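 Eight diet wells per compound were treated at 50 μg/cm^2 (acetone-water 90:10), dried, then infested with 1–5 second-instar larvae each. After five to seven days at 25 °C under 14:10 photoperiod, mortality was scored and averaged across wells.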

[2] = system: Cabbage Looper (Trichoplusia ni, TRIPNI); assay: Bioassays on Cabbage Looper (CL), 128-well diet tray assay; settings: Trichoplusia ni; Table ABC: Biological Results; species CL; read-out: CL
Summary of the method: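 Activity is mean percent mortality over eight wells of second-instar larvae exposed to diet treated at 50 μg/cm^2 for 5–7 days at 25° C.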

[3] = system: Yellow Fever Mosquito (Aedes aegypti, AEDSAE); settings: Table ABC: Biological Results; species YFM
Summary of the method: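 Rating-scale grades reflect larval mortality scored per well after 3 days at room temperature under non-evaporative lids. Larvae (~1 day old, hatched overnight in liver-powder water) were added to six daughter plates per compound, prepared from a 4000 ppm DMSO stock diluted in 90:10 water/acetone.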

SMILES	pest or weed control at 50 µg/cm2 [1]	pest or weed control at 50 µg/cm2 [2]	YFM [3]
O=C(Nc1ccc(F)cc1)c1cc(NC(=O)[C@H]2[C@H](c3ccc(F)c(Cl)c3)C2(Cl)Cl)cc(C(F)(F)F)c1Cl (relative stereo) [F1214, trans-2-Chloro-5-(2,2-dichloro-3-(3-chloro-4-fluorophenyl)cyclopropane-1-carboxamido)-N-(4-fluorophenyl)-3-(trifluoromethyl)benzamide]	50 to 100%	50 to 100%	A (80–100)
O=C(Nc1ccc(F)cc1F)c1cc(NC(=O)[C@H]2[C@H](c3ccc(F)c(Cl)c3)C2(Cl)Cl)cc(C(F)(F)F)c1Cl (relative stereo) [F1215, trans-2-Chloro-5-(2,2-dichloro-3-(3-chloro-4-fluorophenyl)cyclopropane-1-carboxamido)-N-(2,4-difluorophenyl)-3-(trifluoromethyl)benzamide]	50 to 100%	50 to 100%	A (80–100)
CC(=O)Nc1ccc(NC(=O)c2cc(NC(=O)[C@H]3[C@H](c4ccc(F)c(Cl)c4)C3(Cl)Cl)cc(C(F)(F)F)c2Cl)cc1 (relative stereo) [F1216, trans-N-(4-Acetamidophenyl)-2-chloro-5-(2,2-dichloro-3-(3-chloro-4-fluorophenyl)cyclopropane-1-carboxamido)-3-(trifluoromethyl)benzamide]	50 to 100%	50 to 100%	A (80–100)
COc1c(F)cc(NC(=O)[C@H]2[C@H](c3ccc(F)c(Cl)c3)C2(Cl)Cl)cc1C(=O)Nc1ccc(F)cc1 (relative stereo) [F1218, trans-5-(2,2-Dichloro-3-(3-chloro-4-fluorophenyl)cyclopropane-1-carboxamido)-3-fluoro-N-(4-fluorophenyl)-2-methoxybenzamide]	50 to 100%	50 to 100%	A (80–100)
COc1c(F)cc(NC(=O)[C@H]2[C@H](c3ccc(F)c(Cl)c3)C2(Cl)Cl)cc1C(=O)Nc1ccc(F)cc1F (relative stereo) [F1219, trans-5-(2,2-Dichloro-3-(3-chloro-4-fluorophenyl)cyclopropane-1-carboxamido)-N-(2,4-difluorophenyl)-3-fluoro-2-methoxybenzamide]	50 to 100%	50 to 100%	A (80–100)
COc1c(F)cc(NC(=O)[C@H]2[C@H](c3ccc(F)c(Cl)c3)C2(Cl)Cl)cc1C(=O)Nc1ccc(NC(C)=O)cc1 (relative stereo) [F1220, trans-N-(4-Acetamidophenyl)-5-(2,2-dichloro-3-(3-chloro-4-fluorophenyl)-cyclopropane-1-carboxamido)-3-fluoro-2-methoxybenzamide]	50 to 100%	50 to 100%	A (80–100)
Cc1c(N)ccc(NC(=O)c2cc(NC(=O)[C@H]3[C@H](c4cc(Cl)cc(Cl)c4)C3(Cl)Cl)ccc2Cl)c1C (relative stereo) [F1229, trans-N-(4-amino-2,3-dimethylphenyl)-2-chloro-5-(2,2-dichloro-3-(3,5-dichlorophenyl)cyclopropane-1-carboxamido)benzamide]	50 to 100%	50 to 100%	A (80–100)
O=C(Nc1ccc(F)cc1F)c1cc(NC(=O)[C@H]2[C@H](c3cc(Cl)cc(S(F)(F)(F)(F)F)c3)C2(Cl)Cl)ccc1Cl (relative stereo) [F1232, trans-2-chloro-5-(2,2-dichloro-3-(3-chloro-5-(pentafluoro-λ^6-sulfanyl)phenyl)cyclopropane-1-carboxamido)-N-(2,4-difluorophenyl)benzamide]	50 to 100%	50 to 100%	A (80–100)
